Source: paper PMC12150326 (The Journal of Organic Chemistry, 2025)
Read-outs that look alike come from different tables or passages of the source.

How the values were obtained:
Type in all cases: cell-based, human
NCI 60 cell lines = test system: NCI 60 cell lines
Method: (§1) (aR)-6, (aS)-6, (aS)-iso -6, and (aR)-iso -6 were submitted to the 60 Cell Screen panel and evaluated at 5 doses (100 μM, 10 μM, 1 μM, 0.1 μM, and 0.01 μM). […] The complete report from this submission is available at the publisher’s Web site as a separate Supporting Information file. For COMPARE analysis, TGI levels of response for (aR)-DM-MTC (6) and (aS)-iso-DM-MTC were compared to those of several established tubulin inhibitors previously tested in the NCI-60 screen.

MDA-MB-468 = test system: MDA-MB-468
Method: as §1

HL-60(TB) = test system: HL-60(TB)
Method: as §1

UACC-62 = test system: UACC-62
Method: as §1

RPMI-8226 = test system: RPMI-8226
Method: as §1

EKVX = test system: EKVX
Method: as §1

A498 = test system: A498
Method: as §1

PC-3 = test system: PC-3
Method: as §1

OVCAR-8 = test system: OVCAR-8
Method: as §1

SF-539 = test system: SF-539
Method: as §1

RXF 393 = test system: RXF 393
Method: as §1

MDA-MB-231/ATCC = test system: MDA-MB-231/ATCC
Method: as §1

BT-549 = test system: BT-549
Method: as §1

HCC-2998 = test system: HCC-2998
Method: as §1

IGROV1 = test system: IGROV1
Method: as §1

SW-620 = test system: SW-620
Method: as §1

SK-MEL-5 = test system: SK-MEL-5
Method: as §1

HT29 = test system: HT29
Method: as §1

SR = test system: SR
Method: as §1

MDA-MB-435 = test system: MDA-MB-435
Method: as §1

SNB-75 = test system: SNB-75
Method: as §1

NCI-H226 = test system: NCI-H226
Method: as §1

OVCAR-4 = test system: OVCAR-4
Method: as §1

T-47D = test system: T-47D
Method: as §1

UO-31 = test system: UO-31
Method: as §1

K-562 = test system: K-562
Method: as §1

SMILES: COc1cc(C)c(-c2ccc(OC)c(=O)cc2C)c(OC)c1OC (single isomer, unassigned) [(aR)-6]
- fold less potent than colchicine, growth inhibition (NCI 60 cell lines): 10 to 50 fold
- selectivity range (NCI 60 cell lines; NCI-60, GI50 level): 2.39 log units
- Log10 Range at TGI (NCI 60 cell lines; NCI-60 cell line selectivity, listed as (aR)-DM-MTC (6)): 2.13
- GI50 (NCI 60 cell lines; NCI-60 mean): 2.4 µM
- Mean TGI (NCI 60 cell lines; NCI-60 mean total growth inhibition): 63 µM
- Delta Log10GI50 (NCI 60 cell lines; mean graph): 0.95
- Delta Log10LC50 (NCI 60 cell lines; mean graph): 0.73
- Delta Log10TGI (NCI 60 cell lines; mean graph): 1.93
- Range Log10GI50 (NCI 60 cell lines; mean graph): 2.39
- Range Log10LC50 (NCI 60 cell lines; mean graph): 0.74
- Range Log10TGI (NCI 60 cell lines; mean graph): 2.13
- _MID Log10GI50 (NCI 60 cell lines; mean graph midpoint): -5.62 Molar
- _MID Log10LC50 (NCI 60 cell lines; mean graph midpoint): -4.01 Molar
- _MID Log10TGI (NCI 60 cell lines; mean graph midpoint): -4.2 Molar
- Log10GI50 (MDA-MB-468): -5.97 Molar
- Log10LC50 (MDA-MB-468): > -4.00 Molar
- Log10TGI (MDA-MB-468): > -4.00 Molar
- GI50 (MDA-MB-468; Homo sapiens): 1.07 µM
- Log10GI50 (MDA-MB-468; listed as (aR)-DM-MTC): -5.97 Molar
- Log10GI50 (HL-60(TB)): -6.16 Molar
- Log10LC50 (HL-60(TB)): > -4.00 Molar
- Log10TGI (HL-60(TB)): -5.10 Molar
- GI50 (HL-60(TB); Homo sapiens): 0.69 µM
- Log10GI50 (HL-60(TB); listed as (aR)-DM-MTC): -6.16 Molar
- Log10GI50 (UACC-62): -6.03 Molar
- Log10LC50 (UACC-62): > -4.00 Molar
- Log10TGI (UACC-62): > -4.00 Molar
- GI50 (UACC-62; Homo sapiens): 0.93 µM
- Log10GI50 (UACC-62; listed as (aR)-DM-MTC): -6.03 Molar
- Log10GI50 (RPMI-8226): -5.39 Molar
- Log10LC50 (RPMI-8226): > -4.00 Molar
- Log10TGI (RPMI-8226): > -4.00 Molar
- GI50 (RPMI-8226; Homo sapiens): 4.07 µM
- Log10GI50 (RPMI-8226; listed as (aR)-DM-MTC): -5.39 Molar
- Log10GI50 (EKVX): -5.18 Molar
- Log10LC50 (EKVX): > -4.00 Molar
- Log10TGI (EKVX): > -4.00 Molar
- GI50 (EKVX; Homo sapiens): 6.61 µM
- Log10GI50 (EKVX; listed as (aR)-DM-MTC): -5.18 Molar
- Log10GI50 (A498): -6.10 Molar
- Log10LC50 (A498): > -4.00 Molar
- Log10TGI (A498): -5.34 Molar
- GI50 (A498; Homo sapiens): 0.79 µM
- Log10GI50 (A498; listed as (aR)-DM-MTC): -6.1 Molar
- Log10GI50 (PC-3): -5.64 Molar
- Log10LC50 (PC-3): > -4.00 Molar
- Log10TGI (PC-3): > -4.00 Molar
- GI50 (PC-3; Homo sapiens): 2.29 µM
- Log10GI50 (PC-3; listed as (aR)-DM-MTC): -5.64 Molar
- Log10GI50 (OVCAR-8): -5.47 Molar
- Log10LC50 (OVCAR-8): > -4.00 Molar
- Log10TGI (OVCAR-8): > -4.00 Molar
- GI50 (OVCAR-8; Homo sapiens): 3.39 µM
- Log10GI50 (OVCAR-8; listed as (aR)-DM-MTC): -5.47 Molar
- Log10GI50 (SF-539): -5.65 Molar
- Log10LC50 (SF-539): > -4.00 Molar
- Log10TGI (SF-539): > -4.00 Molar
- GI50 (SF-539; Homo sapiens): 2.24 µM
- Log10GI50 (SF-539; listed as (aR)-DM-MTC): -5.65 Molar
- Log10GI50 (RXF 393): -5.71 Molar
- Log10LC50 (RXF 393): > -4.00 Molar
- Log10TGI (RXF 393): > -4.00 Molar
- GI50 (RXF 393; Homo sapiens): 1.95 µM
- Log10GI50 (RXF 393; listed as (aR)-DM-MTC): -5.71 Molar
- Log10GI50 (MDA-MB-231/ATCC): -5.59 Molar
- Log10LC50 (MDA-MB-231/ATCC): > -4.00 Molar
- Log10TGI (MDA-MB-231/ATCC): > -4.00 Molar
- GI50 (MDA-MB-231/ATCC; Homo sapiens): 2.57 µM
- Log10GI50 (MDA-MB-231/ATCC; listed as (aR)-DM-MTC): -5.59 Molar
- Log10GI50 (BT-549): -5.69 Molar
- Log10LC50 (BT-549): > -4.00 Molar
- Log10TGI (BT-549): -5.18 Molar
- GI50 (BT-549; Homo sapiens): 2.04 µM
- Log10GI50 (BT-549; listed as (aR)-DM-MTC): -5.69 Molar
- Log10GI50 (HCC-2998): -5.55 Molar
- Log10LC50 (HCC-2998): > -4.00 Molar
- Log10TGI (HCC-2998): > -4.00 Molar
- GI50 (HCC-2998; Homo sapiens): 2.82 µM
- Log10GI50 (HCC-2998; listed as (aR)-DM-MTC): -5.55 Molar
- Log10GI50 (IGROV1): -5.37 Molar
- Log10LC50 (IGROV1): > -4.00 Molar
- Log10TGI (IGROV1): > -4.00 Molar
- GI50 (IGROV1; Homo sapiens, IGROV-1): 4.27 µM
- Log10GI50 (IGROV1; listed as (aR)-DM-MTC): -5.37 Molar
- Log10GI50 (SW-620): -5.91 Molar
- Log10LC50 (SW-620): > -4.00 Molar
- Log10TGI (SW-620): > -4.00 Molar
- GI50 (SW-620; Homo sapiens): 1.23 µM
- Log10GI50 (SW-620; listed as (aR)-DM-MTC): -5.91 Molar
- Log10GI50 (SK-MEL-5): -5.50 Molar
- Log10LC50 (SK-MEL-5): > -4.00 Molar
- Log10TGI (SK-MEL-5): -4.42 Molar
- GI50 (SK-MEL-5; Homo sapiens): 3.16 µM
- Log10GI50 (SK-MEL-5; listed as (aR)-DM-MTC): -5.5 Molar
- Log10GI50 (HT29): -5.73 Molar
- Log10LC50 (HT29): > -4.00 Molar
- Log10TGI (HT29): -5.02 Molar
- GI50 (HT29; Homo sapiens, HT-29): 1.86 µM
- Log10GI50 (HT29; listed as (aR)-DM-MTC): -5.73 Molar
- Log10GI50 (SR): -6.44 Molar
- Log10LC50 (SR): > -4.00 Molar
- Log10TGI (SR): > -4.00 Molar
- GI50 (SR; Homo sapiens): 0.36 µM
- Log10GI50 (SR; listed as (aR)-DM-MTC): -6.44 Molar
- Log10GI50 (MDA-MB-435): -6.57 Molar
- Log10LC50 (MDA-MB-435): > -4.00 Molar
- Log10TGI (MDA-MB-435): -6.13 Molar
- GI50 (MDA-MB-435; Homo sapiens): 0.27 µM
- Log10GI50 (MDA-MB-435; listed as (aR)-DM-MTC): -6.57 Molar
- Log10GI50 (SNB-75): -6.04 Molar
- Log10LC50 (SNB-75): > -4.00 Molar
- GI50 (SNB-75; Homo sapiens): 0.91 µM
- Log10GI50 (SNB-75; listed as (aR)-DM-MTC): -6.04 Molar
- Log10GI50 (NCI-H226): -5.41 Molar
- Log10LC50 (NCI-H226): > -4.00 Molar
- Log10TGI (NCI-H226): > -4.00 Molar
- GI50 (NCI-H226; Homo sapiens): 3.89 µM
- Log10GI50 (NCI-H226; listed as (aR)-DM-MTC): -5.41 Molar
- Log10GI50 (OVCAR-4): -4.35 Molar
- Log10LC50 (OVCAR-4): > -4.00 Molar
- Log10TGI (OVCAR-4): > -4.00 Molar
- GI50 (OVCAR-4; Homo sapiens): 44.7 µM
- Log10GI50 (OVCAR-4; listed as (aR)-DM-MTC): -4.35 Molar
- Log10GI50 (T-47D): -5.15 Molar
- Log10LC50 (T-47D): > -4.00 Molar
- Log10TGI (T-47D): > -4.00 Molar
- GI50 (T-47D; Homo sapiens, T47D): 7.08 µM
- Log10GI50 (T-47D; listed as (aR)-DM-MTC): -5.15 Molar
- Log10GI50 (UO-31): -5.16 Molar
- Log10LC50 (UO-31): > -4.00 Molar
- Log10TGI (UO-31): > -4.00 Molar
- GI50 (UO-31; Homo sapiens): 6.92 µM
- Log10GI50 (UO-31; listed as (aR)-DM-MTC): -5.16 Molar
- Log10GI50 (K-562): -6.31 Molar
- Log10LC50 (K-562): > -4.00 Molar
- Log10TGI (K-562): > -4.00 Molar
- GI50 (K-562; Homo sapiens, K562): 0.49 µM
- Log10GI50 (K-562; listed as (aR)-DM-MTC): -6.31 Molar
